The subject of one assay is MM1 hepatoma cells. Briefly: MM1 hepatoma cell invasion of endothelial monolayer. The settings on record: LPA 1 μM, GRI977143 10 μM, 20 h. The class given is cell-based, rat. The protocol: Mouse embryonic fibroblast (MEF) cells were isolated from E13.5 LPA1&2 double knockout (DKO) embryos. MEFs were transduced with empty vector or LPA2-containing lentiviruses and selected with 1.5 μg/ml puromycin. Cells were maintained in Dulbecco's modified Eagle medium (DMEM) supplemented with 10% (V/V) fetal bovine serum (FBS), 2 mM L-glutamine, 100 U/mL penicillin, and 100 μg/mL streptomycin. Serum-free medium contained 0.1% (W/V) BSA in DMEM. The rat intestinal epithelial cell line 6 (IEC-6) was obtained from the American Type Culture Collection (Rockville, Md.) at passage 13; passages 16-21 were used in all experiments. IEC-6 cells were maintained in a humidified 37° C. incubator in an atmosphere of 90% air and 10% CO2. Growth medium consisted of DMEM supplemented with 5% heat inactivated FBS, 10 μg/mL insulin, and 50 μg/mL gentamycin. […]
HUVEC (1.3×10^5 cells at passages 5 to 7) were seeded into each well of a 12-well plate pre-coated with 0.2% gelatin (Sigma-Aldrich). […] Tumor cells that penetrated the monolayer were photographed using a NIKON TiU inverted microscope with phase-contrast and fluorescence illumination. […] A total of five non-overlapping fields was imaged per well, and the number of invaded MM1 cells (displaying a flattened morphology underneath the monolayer) was counted.

The next assay deals with T1, LPA2, TRIP6 and NHERF2 (Homo sapiens, UniProt Q9HBW0).
T1 construct: expressed in transfected cells; host or cells: HEK293T, transient co-transfection
Briefly: Ligand-induced macromolecular complex formation with LPA2. The class given is cell-based. Particulars: HEK293T, FLAG-LPA2 and EGFP-NHERF2, 10 μM, 10 min. From the text:
LPA2 forms a ternary complex with TRIP6 and NHERF2. This complex is assembled via multiple protein-protein interactions that include: binding of NHERF2 to the C-terminal PSD95/Dlg/ZO-1 domain (PDZ)-binding motif of LPA2, the binding of TRIP6 to the Zinc-finger-like CxxC motif of LPA2, and binding of NHERF2 to the PDZ-binding motif of TRIP6. To examine ligand-induced macromolecular complex formation, HEK293T cells were transfected with FLAG-LPA2 and enhanced green fluorescent protein (EGFP)-NHERF2, and the cells were exposed to 10 μM GRI977143 for 10 min as described in detail in our previous publication (E et al., The LPA2 receptor-mediated supramolecular complex formation regulates its antiapoptotic effect. J Biol Chem (2009) 284: 14558-14571). The complex was pulled down using anti-FLAG M2 monoclonal antibody-conjugated agarose beads (Sigma-Aldrich) and processed for western blotting using anti-EGFP (gift from Dr. A. P. Naren; UTHSC, TN), anti-FLAG (Sigma-Aldrich), and anti-TRIP6 (Bethyl Laboratories; Montgomery, Tex.) antibodies.

The target in another assay is LPA2 (Homo sapiens, UniProt Q9HBW0). Briefly: Fura-2AM Ca2+ mobilization in LPA2 DKO MEF cells. The settings on record: LPA2 Ca2+ mobilization in DKO MEF cells, mean fluorescence ratio. The class given is cell-based. The arrangement: expressed in transfected cells; host or cells: mouse embryonic fibroblasts from LPA1/2 double-knockout mice, lentiviral transduction. As for the experimental part: (§1) Fluorescence was read every 3.42 seconds for a total of 70 seconds at Ex/Emλ of 340/510 nm and 380/510 nm. Data (relative fluorescence) was then recorded as a mean fluorescence ratio value of the triplicates for each concentration. Graph Pad Prism version 5.0a was then used to fit a non-linear regression curve in a variable slope model (A) to determine the EC50, Emax, and curve fit (R^2)(B).
Mouse embryonic fibroblast (MEF) cells used in this study isolated from LPA1/2 double knock out (LPA2-DKO) mice {Lin, 2007 #132}. These MEF express LPA4/5/6 receptors endogenously at lower levels but completely lack LPA1/2/3 receptor subtypes. The human LPA2 receptor was reintroduced into these MEF cells by lentiviral transduction, which are designated LPA2 DKO MEF {Lin, 2007 #132}. Empty vector-transduced MEF cells, designates as EV DKO MEF, were used as a control. Cells were cultured in a DMEM supplemented with 10% v/v fetal bovine serum (FBS), 2 mM L-glutamine, 100 U/ml penicillin, and 100 μg/mL streptomycin. During serum starvation, the growth medium was replaced with DMEM containing 0.1% (w/v) BSA.
as §1
A general note: Calcium assays in cells follow changes in intracellular calcium, usually with a dye or a luminescent sensor.

SMILES strings stand for the structures.

Data on two compounds can be found in patent US9056835B2, “LPA2 receptor-specific benzoic acid derivatives” (University of Tennessee Research Foundation, priority 2012, dated 2015).

T1 sequence (Q9HBW0 whole entry): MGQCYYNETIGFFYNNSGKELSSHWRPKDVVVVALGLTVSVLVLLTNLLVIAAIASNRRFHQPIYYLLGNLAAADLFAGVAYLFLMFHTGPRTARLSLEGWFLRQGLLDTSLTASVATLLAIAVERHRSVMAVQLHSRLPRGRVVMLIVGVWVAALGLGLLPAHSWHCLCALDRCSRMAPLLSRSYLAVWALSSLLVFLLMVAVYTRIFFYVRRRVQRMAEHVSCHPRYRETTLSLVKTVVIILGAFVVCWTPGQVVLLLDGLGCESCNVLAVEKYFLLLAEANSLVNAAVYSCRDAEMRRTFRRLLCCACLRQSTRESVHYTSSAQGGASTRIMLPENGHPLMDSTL
T1 sequence (Q15599 whole entry partner): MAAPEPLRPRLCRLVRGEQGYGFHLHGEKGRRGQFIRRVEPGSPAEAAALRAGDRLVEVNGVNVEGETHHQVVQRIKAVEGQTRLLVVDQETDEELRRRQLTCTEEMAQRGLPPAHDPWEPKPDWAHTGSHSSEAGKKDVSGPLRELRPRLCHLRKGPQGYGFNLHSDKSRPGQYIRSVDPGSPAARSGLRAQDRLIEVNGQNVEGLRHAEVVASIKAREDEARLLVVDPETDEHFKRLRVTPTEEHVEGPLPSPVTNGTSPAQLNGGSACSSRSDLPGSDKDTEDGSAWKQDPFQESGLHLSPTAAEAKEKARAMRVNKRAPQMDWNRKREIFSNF
T1 sequence (Q15654 whole entry partner): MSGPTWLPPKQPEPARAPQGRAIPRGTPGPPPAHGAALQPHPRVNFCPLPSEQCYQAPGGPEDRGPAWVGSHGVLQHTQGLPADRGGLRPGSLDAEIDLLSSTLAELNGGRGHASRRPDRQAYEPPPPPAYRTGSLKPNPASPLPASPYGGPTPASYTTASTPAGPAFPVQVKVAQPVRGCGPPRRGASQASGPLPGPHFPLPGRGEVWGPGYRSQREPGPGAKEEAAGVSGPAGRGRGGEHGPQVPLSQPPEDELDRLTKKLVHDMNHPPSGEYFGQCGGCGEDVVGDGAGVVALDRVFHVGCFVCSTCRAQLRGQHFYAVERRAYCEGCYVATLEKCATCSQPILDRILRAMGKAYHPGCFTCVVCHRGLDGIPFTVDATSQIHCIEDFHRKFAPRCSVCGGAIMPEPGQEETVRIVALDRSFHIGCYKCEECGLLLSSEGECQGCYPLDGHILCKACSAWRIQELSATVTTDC
Sequence of LPA2 (Q9HBW0 whole entry): as the sequence (Q9HBW0 whole entry) above

With `O=C(O)c1ccccc1SCCCN1C(=O)c2cccc3cccc(c23)C1=O` [GRI977143], the “MM1 cell invasion of HUVEC monolayers” value with MM1 hepatoma cells is reported as “significant increase”. Also, the “assembly of macromolecular complex LPA2-TRIP6-NHERF2” value at LPA2, TRIP6 and NHERF2 was “elicited the assembly of the signaling complex”.

Take `CCCCCCCC/C=C\CCCCCCCC(=O)OC[C@@H](O)COP(=O)(O)O` [LPA 18:1, Lysophosphatidic acid (18:1)]: the “MM1 cell invasion of HUVEC monolayers” value in the assay with MM1 hepatoma cells was “significant increase”. For the same compound, at LPA2, the “Emax (MFR)” value stood at 1.2 MFR.
